This passage reports IC50 and EC50 results from US6949522B2, “β-2′- or 3′-halonucleosides” (Pharmasset, Inc., priority 2001, dated 2005).

One data set is described as follows: in vitro. The conditions noted are these: human. As for the experimental part:
After a three day-incubation for HepG2, or 5 days for human PBM cells, cell viability and mitochondrial activity were measured in a colorimetric assay using the MTS- or MTT dye method (Promega, Madison, Wis.).

The subject of data set [1] is CEM (T-lymphoblastoid cell line). Type of data set: cell-based. The protocol:
(§1) The compounds were evaluated for their potential toxic effects on uninfected PHA-stimulated human PBM cells, in CEM (T-lymphoblastoid cell line obtained from American Type Culture Collection, Rockville, Md.) and Vero (African green monkey kidney) cells. PBM cells were obtained from whole blood of healthy seronegative donors (HIV-1 and hepatitis B virus) by single-step Ficoll-Hypaque discontinous gradient centrifugation. Log phase Vero, CEM and PHA-stimulated human PBM cells were seeded at a density of 5×10^3, 2.5×10^3 and 5×10^4 cells/well respectively. All of the cells were plated in 96-well cell culture plates containing ten-fold serial dilutions of the test drug. The cultures were incubated for 3, 4 and 5 days for Vero, CEM, and PBM cells, respectively in a humidified 5% CO2-air at 37° C. At the end of incubation, MTT tetrazolium dye solution (Cell titer 96®, Promega, Madison, Wis.) was added to each well and incubated overnight. The reaction was stopped with stop solubilization solution (Promega, Madison, Wis.). The plates were incubated for 5 hours to ensure that the formazan crystals were dissolved. The plates were read at a wavelength of 570 nm using an ELISA plate reader (Bio-tek instruments, Inc., Winooski, Vt., Model # EL 312e). […] Bookmark not defined.

For another data set, the system named is HIV-1LAI. The experiment in a line: HIV assay in human PBM cells (RT activity of supernatant). Type of data set: cell-based. The conditions noted are these: 5 days, read-out: Anti-HIV-1 Activity (EC50). The text has this: Human peripheral blood mononuclear (PBM) cells (obtained from Atlanta Red Cross) were isolated by Ficoll-Hypaque discontinuous gradient centrifugation from healthy seronegative donors. Cells were stimulated with phytohemagglutinin A (Difco, Sparks, Md.) for 2-3 days prior to use. HIV-1LAI obtained from the Centers for Disease Control and Prevention (Atlanta, Ga.) was used as the standard reference virus for the antiviral assays. The molecular infetious clones HIV-1xxBru and HIV-1M184Vpin were obtained from Dr. John Mellors (University of Pittsburgh). Infections were done in bulk for one hour, either with 100 TCID50/1×10^7 cells for a flask (T25) assay or with 200 TCID50/6×10^5 cells/well for a 24 well plate assay. Cells were added to a plate or flask containing a ten-fold serial dilution of the test compound. Assay medium was RPMI-1640 supplemented with heat inactivated 16% fetal bovine serum, 1.6 mM L-glutamine, 80 IU/ml penicillin, 80 μg/ml streptomycin, 0.0008% DEAE-Dextran, 0.045% sodium bicarbonate, and 26 IU/ml recombinant interleukin-2 (Chiron Corp, Emeryville, Calif.). AZT was used as a positive control for the assay. Untreated and uninfected PBM cells were grown in parallel at equivalent cell concentrations as controls. The cell cultures were maintained in a humidified 5% CO2-air at 37° C. for 5 days and supernatants were collected for reverse transcriptase (RT) activity.
Supernatants were centrifuged at 12,000 rpm for 2 hours to pellet the virus. The pellet was solubilized with vortexing in 100 μl virus solubilization buffer (VSB) containing 0.5% Triton X-100, 0.8 M NaCl, 0.5 mM phenylmethylsulfonyl fluoride, 20% glycerol, and 0.05 M Tris, pH 7.8. Ten μL of each sample were added to 75 μL RT reaction mixture (0.06 M Tris, pH 7.8, 0.012 M MgCl2, 0.006 M dithiothreitol, 0.006 mg/ml poly (rA)n, oligo (dT)12-18, 96 μg/ml dATP, and 1 μM of 0.08 mCi/ml ^3H-thymidine triphosphate (Moravek Biochemicals, Brea, Calif.) and incubated at 37° C. for 2 hours. The reaction was stopped by the addition of 100 μL 10% trichloroacetic acid containing 0.05% sodium pyrophosphate. The acid insoluble product was harvested onto filter paper using a Packard Harvester (Meriden, Conn.), and the RT activity was read on a Packard Direct Beta Counter (Meriden, Conn.). The RT results were expressed in counts per minute (CPM) per milliliter.

The subject of another data set is human PBM cells. Kind of data set: in vitro. Type of data set: cell-based. The protocol:
as §1, with “Log phase Vero, CEM and PHA-stimulated human PBM cells were seeded at a density of 5×10^3, 2.5×10^3 and 5×10^4 cells/well respectively.” left out, “The cultures were incubated for 3, 4 and 5 days for Vero, CEM, and PBM cells, respectively in a humidified 5% CO2-air at 37° C.” left out

Data set [2] concerns Vero (African green monkey kidney) cells. The experiment in a line: in vitro. Type of data set: cell-based. The protocol: as §1

Where two headings read alike, the source gives them in different places.

Compound `Cc1cn([C@H]2C[C@H](N=[N+]=[N-])[C@@H](CO)O2)c(=O)[nH]c1=O` [AZT, 3′-azido-3′-deoxythymidine, reference compound] gave an IC50 at 5 days in “in vitro” of over 100 µM. The compound also registered an IC50 in data set [1] (human, 4 days) of 29 µM. In the data set with HIV-1LAI (Human immunodeficiency virus 1, PBMC, 120 h), the EC50 came to 0.004 µM.

The compound `Nc1ccn([C@@H]2CS[C@H](CO)O2)c(=O)n1` [Compound 3TC, (−)-β-2′,3′-dideoxy-3′-thiacytidine, reference compound] returned an IC50 at 5 days in the data set “in vitro” of over 100 µM.

For `Nc1ccn([C@@H]2C=C(F)[C@H](CO)O2)c(=O)n1` [Compound 10, 1-(2,3-Dideoxy-3-fluoro-β-L-glycero-pent-2-eno-furanosyl)cytosine], in “in vitro”, the IC50 at 5 days was over 100 µM.

With `Nc1ccn([C@@H]2S[C@H](CO)C=C2F)c(=O)n1` [Compound D-17, (−)-1-[(1S,4R)-2,3-dideoxy-2,3-didehydro-2-fluoro4-thio-β-D-ribofuranosyl]-cytosine], the concentration for half-maximal inhibition (IC50) (in the data set with human PBM cells; in data set [1]; in data set [2]) was over 100 µM each time. Further, in the data set with HIV-1LAI, the EC50 came out at 1.3 µM.

Regarding `Nc1nc(=O)n([C@@H]2S[C@H](CO)C=C2F)cc1F` [Compound D-18, (−)-1-[(1S,4R)-2,3-dideoxy-2,3-didehydro-2-fluoro-4-thio-β-D-ribofuranosyl]-5-fluorocytosine], the IC50 (in the data set on human PBM cells; in data set [1]; in data set [2]) was over 100 µM in each case. The EC50 in the data set with HIV-1LAI amounted to 11.6 µM.

Take `Nc1ccn([C@H]2S[C@@H](CO)C=C2F)c(=O)n1` [Compound L-17, (+)-1-[(1S,4R)-2,3-dideoxy-2,3-didehydro-2-fluoro-4-thio-β-L-ribofuranosyl]-cytosine]: the IC50 (with human PBM cells; in data set [1]; in data set [2]) was over 100 µM in each case.

With `Nc1nc(=O)n([C@H]2S[C@@H](CO)C=C2F)cc1F` [Compound L-18, (+)-1-[(1S,4R)-2,3-dideoxy-2,3-didehydro-2-fluoro-4-thio-β-L-ribofuranosyl]-5-fluoro-cytosine], the IC50 (with human PBM cells; in data set [1]; in data set [2]) was over 100 µM in each case. Further, the EC50 with HIV-1LAI amounted to 0.15 µM.

By IC50 is commonly meant the point on the concentration scale where inhibition reaches its midpoint. Usually EC50 stands for the midpoint of the concentration-response curve.
